Data as given in patent US20240317777A1, “NOVEL MACROCYCLIC AMINOPYRAZOLE COMPOUNDS AS CDK2 INHIBITORS” (Accutar Biotechnology Inc., priority 2023, published 2024).
Like-named read-outs stand apart in the source and are kept apart here.

Legend:
[1] = system: Phospho-Rb (Ser807/811) in OVCAR3 cells; experiment: Phospho-Rb expression inhibition in OVCAR3 cells quantified by In Cell Western; type: cell-based; conditions: read-out: OVCAR-3 pRb IC50
Method: Phospho-Rb Expression Inhibition in OVCAR3 Cells Quantified by in Cell Western
OVCAR3 cells were obtained from American Type Culture Collection (ATCC, HTB-161). OVCAR3 cells were plated in 96-well plates (VWR #10062-900, or Corning #3904) in 90 uL culture medium at a density of 20,000 cells/well in the RPM11640 growth medium containing 10% FBS and 1% Penicillin Streptomycin, and then incubated at 37° C. overnight. The following day, the test compound was administered to the cells by using 1000× compound stock solution prepared in DMSO at various concentrations. 1000× compound stock solution was first diluted in culturing medium to 10x, then 10 uL compound medium was added to each well in the cell plates. After administration of the compound, the cells were then incubated at 37° C. for 24 hours. Upon completion, the cells were washed with PBS briefly. 150 uL/well of 4% formaldehyde was added and the plates were incubated at room temperature for 20 mins. The cells were washed with PBS briefly, and permeabilized with 150 uL/well of ice cold 100% methanol for 10 mins. The cells were washed with PBS briefly and blocked with 100 uL/well LI-COR blocking buffer for 1 hr at room temperature with gentle shaking. The cells were incubated overnight at 4° C. with 50 uL primary antibody rabbit anti-Phospho-Rb (Ser807/811) (1:500, Cell Signaling, #8516) and anti-Rb (1:200, Santa Cruz, sc-73598) diluted in Intercept Blocking Buffer (LI-COR, #927-60001) containing 0.1% Tween 20. The next day, the cells were washed with 200 uL PBS containing 0.1% Tween 20, 5×5 mins at room temperature with gentle shaking, and incubated with 50 uL secondary antibody, IRDye® 800CW Goat anti-Rabbit IgG (1:1000, LI-COR, #926-32211) and IRDye® 680RD Goat anti-Mouse IgG (1:1000, LI-COR, #926-68070), in LI-COR blocking buffer with 0.2% Tween 20 for 1 hr at room temperature with gentle shaking. The cells were washed with 200 uL PBS containing 0.1% Tween 20, 5×5 mins at room temperature with gentle shaking. The cells were washed with PBS for 5 mins. 100 uL fresh PBS was added to each well and the plates were imaged on a LI-COR Odyssey CLX plate reader.

[2] = system: CCNE1-amplified OVCAR3 cells; experiment: Cell growth inhibition of CCNE1-amplified OVCAR3 cells (CellTiter-Glo); type: cell-based; conditions: 6 days
Method: Cell Growth Inhibition of CCNE1-Amplified OVCAR3 Cells
OVCAR3 cells were seeded in 96-well plates at 2000 cells/well in 90 μl of RPM11640 growth medium containing 10% FBS and 1% Penicillin Streptomycin, and then incubated at 37° C. overnight. The following day, the test compound was administered to the cells by using 1000× compound stock solution prepared in DMSO at various concentrations. 1000× compound stock solution was first diluted in culturing medium to 10x, then 10 uL compound medium was added to each well in the cell plates. After administration of the compound, the cells were then incubated at 37° C. for 6 days. Upon completion, the plates were equilibrated at room temperature for approximately 10 minutes. 100 ul of CellTiter-Glo® Reagent (Promega) was added to each well. The plates were then incubated at room temperature for 10 minutes and luminescence was recorded by EnSpire plate reader (PerkinElmer).

[3] = Homo sapiens, OVCAR-3, 24 hours

| Structure (SMILES) | IC50 [1, 3] [nM] | IC50 ([2]; Homo sapiens, OVCAR-3, 144 h) [nM] | IC50 ([1]; 24 hours) [nM] | IC50 [2] [nM] |
| --- | --- | --- | --- | --- |
| O=C1NCCCOc2cc(ccn2)Nc2cc([nH]n2)[C@H]2CC[C@H](C2)O1 [Compound 2, (1^1S,1^3R,Z)-2^1H-5,11-dioxa-3,9-diaza-4(4,2)-pyridina-2(3,5)-pyrazola-1(1,3)-cyclopentanacycloundecaphan-10-one] | > 250 | > 250 | – | – |
| C[C@@H]1CCC(C)(C)NC(=O)O[C@@H]2CC[C@@H](C2)c2cc([nH]n2)Nc2ccnc(c2)O1 [Compound 112, (1^1S,1^3R,6R,Z)-6,9,9-trimethyl-2^1H-5,12-dioxa-3,10-diaza-4(4,2)-pyridina-2(3,5)-pyrazola-1(1,3)-cyclopentanacyclododecaphan-11-one] | 50 to 250 | > 250 | – | – |
| C[C@@H]1CCC(C)(C)NC(=O)O[C@@H]2CC[C@@H](C2)c2cc([nH]n2)Nc2cncc(c2)O1 [Compound 123, (1^1S,1^3R,6R,Z)-6,9,9-trimethyl-2^1H-5,12-dioxa-3,10-diaza-4(3,5)-pyridina-2(3,5)-pyrazola-1(1,3)-cyclopentanacyclododecaphan-11-one] | > 250 | > 250 | – | – |
| O=C1N[C@H](C(F)(F)F)CCCOc2cc(ccn2)Nc2cc(n[nH]2)[C@H]2CC[C@H](C2)O1 [Compound 127, (1^1S,1^3R,9S,Z)-9-(trifluoromethyl)-2^1H-5,12-dioxa-3,10-diaza-4(4,2)-pyridina-2(3,5)-pyrazola-1(1,3)-cyclopentanacyclododecaphan-11-one] | > 250 | > 250 | – | – |
| O=C1NC2CCN(CC2)c2cc(ccn2)Nc2cc(n[nH]2)[C@H]2CC[C@H](C2)O1 [Compound 136, (5^1S,5^3R,Z)-4^1H-6-oxa-3,8-diaza-2(2,4)-pyridina-1(1,4)-piperidina-4(5,3)-pyrazola-5(1,3)-cyclopentanacyclooctaphan-7-one] | > 250 | > 250 | – | – |
| C[C@H]1Oc2cc(ccn2)Nc2cc(n[nH]2)[C@H]2CC[C@H](C2)OC(=O)N[C@H]2C[C@@H]1C2 [Compound 143, (1^1S,1^3R,7^1S,7^3S,6R,Z)-6-methyl-2^1H-5,10-dioxa-3,8-diaza-4(4,2)-pyridina-2(3,5)-pyrazola-1(1,3)-cyclopentana-7(1,3)-cyclobutanacyclodecaphan-9-one] | 50 to 250 | 50 to 250 | – | – |
| CC1CCCNC(=O)OC2CCC(C2)c2cc([nH]n2)Nc2cc(c[n+]([O-])c2)O1 [Compound 153, (1^1S,1^3R,6R,Z)-6-methyl-11-oxo-2^1H-5,12-dioxa-3,10-diaza-4(3,5)-pyridin-1-iuma-2(3,5)-pyrazola-1(1,3)-cyclopentanacyclododecaphane 41-oxide] | – | – | > 250 | > 250 |
| CC1CCCNC(=O)OC2CCC(C2)c2cc([nH]n2)Nc2cc(c[n+]([O-])c2)O1 [Compound 154, (1^1S,1^3R,6S,Z)-6-methyl-11-oxo-2^1H-5,12-dioxa-3,10-diaza-4(3,5)-pyridin-1-iuma-2(3,5)-pyrazola-1(1,3)-cyclopentanacyclododecaphane 41-oxide] | – | – | 50 to 250 | > 250 |
| C[C@@H]1CCCNC(=O)O[C@@H]2CC[C@@H](C2)c2cc([nH]n2)Nc2cccc(c2)O1 [Compound 156, (1^1S,1^3R,6R,Z)-6-methyl-2^1H-5,12-dioxa-3,10-diaza-2(3,5)-pyrazola-4(1,3)-benzena-1(1,3)-cyclopentanacyclododecaphan-11-one] | > 250 | > 250 | – | – |
| O=C1NCCCO[C@H](C(F)(F)F)c2cc(ccn2)Nc2cc(n[nH]2)[C@H]2CC[C@H](C2)O1 [Compound 160, (1^1S,1^3R,5S,Z)-5-(trifluoromethyl)-2^1H-6,12-dioxa-3,10-diaza-4(4,2)-pyridina-2(3,5)-pyrazola-1(1,3)-cyclopentanacyclododecaphan-11-one] | 50 to 250 | 50 to 250 | – | – |
| [2H]C1([2H])CC[C@H](C)NC(=O)O[C@@H]2CC[C@@H](C2)c2cc([nH]n2)Nc2cc(ncc2F)O1 [Compound 175, (1^1S,1^3R,9S,Z)-4^5-fluoro-9-methyl-2^1H-5,12-dioxa-3,10-diaza-4(4,2)-pyridina-2(3,5)-pyrazola-1(1,3)-cyclopentanacyclododecaphan-11-one-6,6-d2] | > 250 | > 250 | – | – |
| C[C@H]1CCCOc2cc(cc(F)n2)Nc2cc(n[nH]2)[C@H]2CC[C@H](C2)OC(=O)N1 [Compound 178, (1^1S,1^3R,9S,Z)-4^6-fluoro-9-methyl-2^1H-5,12-dioxa-3,10-diaza-4(4,2)-pyridina-2(3,5)-pyrazola-1(1,3)-cyclopentanacyclododecaphan-11-one] | 10 to 50 | 50 to 250 | – | – |
| C[C@H]1CCCOc2ncc(F)c(c2F)Nc2cc(n[nH]2)[C@H]2CC[C@H](C2)OC(=O)N1 [Compound 180, (1^1S,1^3R,9S,Z)-4^3,4^5-difluoro-9-methyl-2^1H-5,12-dioxa-3,10-diaza-4(4,2)-pyridina-2(3,5)-pyrazola-1(1,3)-cyclopentanacyclododecaphan-11-one] | > 250 | > 250 | – | – |
| C[C@@H]1NC(=O)O[C@H]2C[C@H](C[C@H]2F)c2cc([nH]n2)Nc2ccnc(c2)OCCC1(F)F [Compound 226, (1^1R,1^3S,1^4R,9S,Z)-1^4,8,8-trifluoro-9-methyl-2^1H-5,12-dioxa-3,10-diaza-4(4,2)-pyridina-2(3,5)-pyrazola-1(1,3)-cyclopentanacyclododecaphan-11-one] | 2 to 10 | – | – | – |
| C[C@@H]1NC(=O)O[C@@H]2C[C@@H](C[C@@H]2F)c2cc([nH]n2)Nc2ccnc(c2)OCCC1(F)F [Compound 227, (1^1S,1^3R,1^4S,9S,Z)-1^4,8,8-trifluoro-9-methyl-2^1H-5,12-dioxa-3,10-diaza-4(4,2)-pyridina-2(3,5)-pyrazola-1(1,3)-cyclopentanacyclododecaphan-11-one] | 10 to 50 | – | – | – |
| C[C@@H]1NC(=O)O[C@H]2CC(C[C@H]2F)c2n[nH]c(c2F)Nc2ccnc(c2)OCCC1(F)F [Compound 239, (1^1R,1^3S,1^4R,9S,E)-1^4,2^4,8,8-tetrafluoro-9-methyl-2^1H-5,12-dioxa-3,10-diaza-4(4,2)-pyridina-2(3,5)-pyrazola-1(1,3)-cyclopentanacyclododecaphan-11-one] | 10 to 50 | – | – | – |
| C[C@@H]1NC(=O)O[C@@H]2CC(C[C@@H]2F)c2n[nH]c(c2F)Nc2ccnc(c2)OCCC1(F)F [Compound 240, (1^1S,1^3R,1^4S,9S,E)-1^4,2^4,8,8-tetrafluoro-9-methyl-2^1H-5,12-dioxa-3,10-diaza-4(4,2)-pyridina-2(3,5)-pyrazola-1(1,3)-cyclopentanacyclododecaphan-11-one] | 10 to 50 | – | – | – |
| C[C@H]1CCCOc2cncc(n2)Nc2cc(n[nH]2)C2C[C@@H](F)[C@H](C2)OC(=O)N1 [Compound 242, (1^1R,1^3S,1^4R,9S,Z)-1^4-fluoro-9-methyl-2^1H-5,12-dioxa-3,10-diaza-4(2,6)-pyrazina-2(3,5)-pyrazola-1(1,3)-cyclopentanacyclododecaphan-11-one] | ≤ 2 | – | – | – |
| C[C@H]1CCCOc2cncc(n2)Nc2[nH]nc(c2F)C2C[C@@H](F)[C@H](C2)OC(=O)N1 [Compound 243, (1^1R,1^3S,1^4R,9S,E)-1^4,2^4-difluoro-9-methyl-2^1H-5,12-dioxa-3,10-diaza-4(2,6)-pyrazina-2(3,5)-pyrazola-1(1,3)-cyclopentanacyclododecaphan-11-one] | ≤ 2 | – | – | – |
